# Results taken from US12583873B2, “Amino acid mineral complex having immunopotentiating activity and composition for foods, pharmaceuticals, or feeds comprising same” (priority 2018, dated 2026).
# Where “and” joins values, the source holds several entries; their conditions need not be identical. Equal values may be shown once. Entries after “also recorded” stand apart in the source; their conditions may differ. Read-outs that look alike come from different tables or passages of the source.
# How the values were obtained:
# [1] = pig, in vivo
# [2] = tested on: immunoglobulin (IgG) in serum; conditions: pig, in vivo
# [3] = tested on: Foot-and-mouth disease antibody (FMDV type 0); conditions: pig, in vivo
# H1N1 virus [4] = experiment: Body weight change of H1N1-infected mice; assay type: in vivo; conditions: H1N1-infected ICR mice; for Body weight, Start point (day 0): baseline before oral 20 μg/kg/day; for Body weight as compared to the negative control group / Body weight, End point (day 5): oral 20 μg/kg/day for 5 days; for Body weight, End point (day 5): start point 100.0
# H1N1 virus [5] = experiment: H1N1 virus content in lung tissue of mice; assay type: in vivo; conditions: oral 20 μg/kg/day for 5 days; for Tissues virus titers: lung tissue of H1N1-infected ICR mice
# [6] = pig, in vivo; remark: listed apart in the source
compound,measurement,setting,value
zinc-aspartic acid complex [Comparative Example 3],Body weight as compared to CON 1 and CON 2,[1],slight increase in body weight
same,"Body weight, End time",[1],54.55a
same,"Body weight, Start time",[1],22.56 ^
same,IgG,[2],489b ^ mg/dL
same,Immunoglobulin content in blood as compared to CON 1 and CON 2,[2],not significantly different
same,Antibody titer (PI),[3],54.45b
same,Positive rate,[3],75
same,Positive rate for the foot-and-mouth disease antibody,[3],75%
same,Production of the foot-and-mouth disease antibody as compared to CON 1 and CON 2,[3],increased slightly
same,"Body weight, Start point (day 0)",H1N1 virus [4],100.0 ^
same,Body weight as compared to the negative control group,H1N1 virus [4],did not show significant increase in body weight
same,"Body weight, End point (day 5)",H1N1 virus [4],103.7ab
same,Tissues virus titers,H1N1 virus [5],3.9b Log10 TCID50
"[O-2].[Zn+2] [CON 1, zinc oxide]","Body weight, End time",[1],53.62b
same,"Body weight, Start time",[1],22.56
same,IgG,[2],472b mg/dL
same,Antibody titer (PI),[3],47.38b
same,Positive rate,[3],50
same,Positive rate for the foot-and-mouth disease antibody,[3],50%
same,Zinc,[6],100c μg/dL
"N[C@@H](CC(=O)[O-])C(=O)[O-].O.[Zn+2] [Example 1-2, zinc aspartate hydrate]",Body weight as compared to CON 1 and CON 2,[1],slight increase in body weight
same,"Body weight, Start time",[1],22.56 ^
same,IgG,[2]; hydrate,504ab mg/dL and 546a mg/dL
same,Immunoglobulin content in blood as compared to CON 1 and CON 2,[2]; hydrate,"significant increase; also recorded: distinct, although not significant, increase"
same,Positive rate for the foot-and-mouth disease antibody,[3],100%
same,Production of the foot-and-mouth disease antibody as compared to CON 1 and CON 2,[3]; hydrate,increased slightly; also recorded: Significant increase
same,"Body weight, Start point (day 0)",H1N1 virus [4],100.0
same,Body weight as compared to the negative control group,H1N1 virus [4],did not show significant increase in body weight
same,"Body weight, End point (day 5)",H1N1 virus [4],106.8b
same,Virus content in the lung tissue,H1N1 virus [5]; H1N1-infected ICR mice,decreased significantly
same,Tissues virus titers,H1N1 virus [5],2.1a Log10 TCID50
same,Zinc content in blood as compared to CON 1 and CON 2,[6],increased significantly
"O=S(=O)([O-])[O-].[Zn+2] [CON 2, zinc sulfate]","Body weight, End time",[1],53.74b
same,"Body weight, Start time",[1],22.56
same,IgG,[2],466b mg/dL
same,Antibody titer (PI),[3],47.52b
same,Positive rate,[3],50
same,Positive rate for the foot-and-mouth disease antibody,[3],50%
same,"Body weight, Start point (day 0)",H1N1 virus [4],100.0
same,Body weight as compared to the negative control group,H1N1 virus [4],decreased body weight
same,"Body weight, End point (day 5)",H1N1 virus [4],99.9a
same,Tissues virus titers,H1N1 virus [5],4.4b Log10 TCID50
same,Zinc,[6],98c μg/dL
zinc-aspartic acid complex [Example 1-1],Body weight as compared to CON 1 and CON 2,[1],slight increase in body weight
same,"Body weight, End time",[1],54.43ab
same,"Body weight, Start time",[1],22.56 ^
same,IgG,[2],480b mg/dL
same,Immunoglobulin content in blood as compared to CON 1 and CON 2,[2],not significantly different
same,Antibody titer (PI),[3],51.88b
same,Positive rate,[3],75
same,Positive rate for the foot-and-mouth disease antibody,[3],75%
same,Production of the foot-and-mouth disease antibody as compared to CON 1 and CON 2,[3],increased slightly
same,"Body weight, Start point (day 0)",H1N1 virus [4],100.0 ^
same,Body weight as compared to the negative control group,H1N1 virus [4],did not show significant increase in body weight
same,"Body weight, End point (day 5)",H1N1 virus [4],104.8ab
same,Tissues virus titers,H1N1 virus [5],4.1b Log10 TCID50
